According to patent publication US20130072509A1, “PTEROSTILBENE AND STATIN COMBINATION FOR TREATMENT OF METABOLIC DISEASE, CARDIOVASCULAR DISEASE, AND INFLAMMATION” (ChromaDex Inc., priority 2011, published 2013):
Like-named read-outs stand apart in the source and are kept apart here.

How the values were obtained:
H4IIEC3 rat liver cells = details: 100 μM; cited from earlier work
[1] = cited from earlier work; for bioavailability: in vivo
PPAR-alpha = molecular target: T1, PPAR-alpha (Rattus norvegicus, UniProt P37230); details: cited from earlier work
T1 construct: endogenous in cells; host or cells: H4IIEC3 rat liver cells
T1 sequence (P37230 1-468): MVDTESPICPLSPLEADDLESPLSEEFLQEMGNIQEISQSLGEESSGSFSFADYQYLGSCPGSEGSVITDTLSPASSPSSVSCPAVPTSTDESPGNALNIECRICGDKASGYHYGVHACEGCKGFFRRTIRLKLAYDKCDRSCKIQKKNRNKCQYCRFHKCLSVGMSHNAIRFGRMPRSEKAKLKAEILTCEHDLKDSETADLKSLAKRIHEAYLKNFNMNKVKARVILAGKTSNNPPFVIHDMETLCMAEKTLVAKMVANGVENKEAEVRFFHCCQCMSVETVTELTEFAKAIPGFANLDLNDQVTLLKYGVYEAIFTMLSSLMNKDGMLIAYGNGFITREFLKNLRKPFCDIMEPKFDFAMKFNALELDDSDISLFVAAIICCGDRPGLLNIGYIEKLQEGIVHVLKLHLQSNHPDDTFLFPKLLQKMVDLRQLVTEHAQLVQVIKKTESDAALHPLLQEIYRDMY

rat smooth muscle cells = details: in vitro; cited from earlier work
CYP1B1 = molecular target: T2, CYP1B1 (Homo sapiens, UniProt Q16678); details: human recombinant; cited from earlier work
T2 sequence (Q16678 1-543): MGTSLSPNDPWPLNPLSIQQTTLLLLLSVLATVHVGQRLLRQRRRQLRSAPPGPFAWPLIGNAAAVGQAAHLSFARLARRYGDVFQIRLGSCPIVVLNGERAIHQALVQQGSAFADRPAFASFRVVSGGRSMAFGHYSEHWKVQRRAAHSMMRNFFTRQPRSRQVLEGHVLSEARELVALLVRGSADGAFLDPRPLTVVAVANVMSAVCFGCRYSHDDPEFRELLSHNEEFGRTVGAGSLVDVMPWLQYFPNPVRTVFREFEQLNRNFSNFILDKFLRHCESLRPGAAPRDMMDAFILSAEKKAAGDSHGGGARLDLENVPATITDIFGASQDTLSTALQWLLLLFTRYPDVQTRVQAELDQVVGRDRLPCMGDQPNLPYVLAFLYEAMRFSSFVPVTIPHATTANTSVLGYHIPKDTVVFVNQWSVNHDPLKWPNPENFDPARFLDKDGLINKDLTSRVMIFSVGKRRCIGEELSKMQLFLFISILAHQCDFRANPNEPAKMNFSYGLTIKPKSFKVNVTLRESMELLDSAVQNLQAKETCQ

[2] = mice, 28-day subacute; 160 pound human equivalent doses of approximately 125 mg/day, 1.25 g/day and 12.5 g/day; cited from earlier work
CYP1A1 = molecular target: T3, CYP1A1 (Homo sapiens, UniProt P04798); details: human recombinant; cited from earlier work
T3 sequence (P04798 1-512): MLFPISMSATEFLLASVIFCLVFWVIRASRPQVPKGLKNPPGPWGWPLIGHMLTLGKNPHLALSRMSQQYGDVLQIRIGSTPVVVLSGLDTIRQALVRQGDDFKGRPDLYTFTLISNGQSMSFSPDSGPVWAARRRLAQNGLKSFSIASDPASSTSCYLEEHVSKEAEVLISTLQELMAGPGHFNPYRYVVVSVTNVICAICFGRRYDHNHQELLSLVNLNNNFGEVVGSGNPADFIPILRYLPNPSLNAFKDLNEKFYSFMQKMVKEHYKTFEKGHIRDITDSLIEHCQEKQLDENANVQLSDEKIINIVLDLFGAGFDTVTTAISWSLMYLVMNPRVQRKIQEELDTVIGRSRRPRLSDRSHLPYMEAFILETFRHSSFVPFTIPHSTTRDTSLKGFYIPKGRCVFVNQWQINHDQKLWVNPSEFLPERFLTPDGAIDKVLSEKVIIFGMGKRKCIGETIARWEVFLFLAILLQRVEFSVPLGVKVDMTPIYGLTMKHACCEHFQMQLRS

[3] = Human clinical trial in dyslipidemia patients: lipids and blood pressure; format: in vivo
Description: The following is a general study design for human clinical trial to assess efficacy of pterostilbene, in combination with a statin, to lower cholesterol and/or lower blood pressure, among other measured endpoints including markers for oxidative stress. The study type is interventional: a randomized, double-blind, placebo controlled study. Endpoint Classification: Safety/Efficacy Study.
The purpose of this study is to evaluate whether pterostilbene alone, or a combination of pterostilbene and a statin compound, will help control cholesterol and blood pressure, as well as improve markers for oxidative stress in patients with dyslipidemia meeting inclusion criteria. The investigators will assess the safety of pterostilbene in these patients. Further, 33% of all subjects, spread randomly across all study groups, will be undergoing concurrent statin therapy but still satisfy the inclusion criteria of a previous TC≧200 mg/dL, and/or a LDL-C≧100 mg/dL.
Sixty subjects, divided into three groups: 20 per study group. Ages eligible for study: 18 to 88 years, both genders. No healthy volunteers accepted. Inclusion criteria: patients ≧18 years of age with a previous TC≧200 mg/dL, and/or a LDL-C≧100 mg/dL on either no therapy or stable therapy. Any concomitant cholesterol medication must be at a stable dose for at least 2 months prior to baseline laboratory and not listed in the exclusion criteria. Exclusion criteria: patients with significant hepatic, renal or gastrointestinal tract disease, receiving thiazolidinediones or fibric acid derivatives, current overt cardiovascular disease, women of reproductive potential not receiving birth control, and pregnant/nursing women.
Evaluation Criteria for clinical measurement: 1. Primary outcome measures: lipid laboratory markers (i.e., change in baseline TC, LDL-C, triglycerides (TG), HDL-C, non-HDL-C); 2. Secondary outcome measures: blood pressure (i.e., change in baseline systolic blood pressure and/or diastolic blood pressure); basic metabolic panel; AST (aspartate aminotransferase); ALT (alanine aminotransferase); and/or oxidative stress markers (i.e., change in baseline urine-derived markers of stress (e.g., isoprostanes: iPF2-Alpha-III/creat; iPF2-Alpha-VI/creat; 2,3 Dinor-iPF2-Alpha-III/creat)).
Subjects will be divided into three groups or arms: (1) high dose pterostilbene, 125 mg twice daily by mouth for 6 to 8 weeks; (2) low dose pterostilbene, 50 mg twice daily by mouth for 6 to 8 weeks; (3) matching placebo taken twice daily by mouth for 6 to 8 weeks; either one hour before or two hours after a meal. Further, as stated above, 33% of all subjects, spread randomly across all study groups, will be undergoing concurrent statin therapy. […]

[4] = 100 μM, H4IIEC3 rat liver cells
[5] = after 8 weeks, oral twice daily, pterostilbene alone

Oc1ccc(C=Cc2cc(O)cc(O)c2)cc1 [resveratrol, reference compound]
Toxicity to cells (H4IIEC3 rat liver cells): toxic to cells
half life t1/2 in blood [1]: 10 to 14 min
bioavailability [1]: poor bioavailability

COc1cc(/C=C/c2ccc(O)cc2)cc(OC)c1 [pterostilbene, 3,5-dimethoxy-4′-hydroxy-trans-stilbene]
PPAR-alpha activation over the control (PPAR-alpha; [4]): 8 fold
PPAR-alpha activation relative to 100 μM of ciprofibrate (PPAR-alpha; [4]): ~2 fold
PPAR-alpha activation over the control (PPAR-alpha; 300 μM, H4IIEC3 rat liver cells): 14 fold
PPAR-alpha activation (in words) (PPAR-alpha; study of a group of similar stilbenes, in a manner similar to ciprofibrate): activated PPAR-alpha
proliferation of rat smooth muscle cells (rat smooth muscle cells): inhibit the proliferation
CYP1B1 inhibition (CYP1B1): shown to inhibit
local or systemic toxicity [2]: no local or systemic toxicity
CYP1A1 inhibition (CYP1A1): shown to inhibit
change in LDL-C level [3, 5]: slight increases
change in TC level [3, 5]: slight increases
reduction in diastolic blood pressure ([3]; high dose (250 mg daily), including patients receiving a statin, p<0.001): −7.3 mmHg
reduction in systolic blood pressure ([3]; high dose (250 mg daily), including patients receiving a statin, p<0.01): −7.8 mmHg
half life t1/2 in blood [1]: 74 to 105 min
bioavailability [1]: orally bioavailable
